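Following 48 hours of exposure in 96-well plates, responses at five concentrations were used to interpolate endpoints linearly. Abbreviation: GI50, concentration required for 50% inhibition of growth.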 Calls of active or inactive are those of the source. No stated cut-off is given here; in the data, active = GI50 up to about 1.1 µM and inactive = higher.
Columns and labels:
Test in all cases: growth of human tumour cells (NCI), 48 h
786-0 = tested on: 786-0
A498 = tested on: A498
CAKI-1 = tested on: CAKI-1
HCT-116 = tested on: HCT-116
HL-60 = tested on: HL-60
HT-29 = tested on: HT-29
IGROV-1 = tested on: IGROV-1
KM-20L2 = tested on: KM-20L2
M19-MEL = tested on: M19-MEL
MOLT-4 = tested on: MOLT-4
Malme-3M = tested on: Malme-3M
OVCAR-4 = tested on: OVCAR-4
SF-295 = tested on: SF-295
UACC-257 = tested on: UACC-257
COLO 205 = tested on: COLO 205
DU-145 = tested on: DU-145
HOP-92 = tested on: HOP-92
NCI-H522 = tested on: NCI-H522
MDA-MB-435 = tested on: MDA-MB-435
NCI/ADR-RES = tested on: NCI/ADR-RES

Compound	GI50 (786-0)	GI50 (A498)	GI50 (CAKI-1)	GI50 (HCT-116)	GI50 (HL-60)	GI50 (HT-29)	GI50 (IGROV-1)	GI50 (KM-20L2)	GI50 (M19-MEL)	GI50 (MOLT-4)	GI50 (Malme-3M)	GI50 (OVCAR-4)	GI50 (SF-295)	GI50 (UACC-257)	GI50 (COLO 205)	GI50 (DU-145)	GI50 (HOP-92)	GI50 (NCI-H522)	GI50 (MDA-MB-435)	GI50 (NCI/ADR-RES)
C[C@]12CC[C@H](O)CC1=CC[C@@H]1C2CC[C@]2(C)Nc3c(cnn3-c3ccccc3)CC12 (stereo not given in full)	1.56 µM (inactive)	3.61 µM (inactive)	2.96 µM (inactive)	3.01 µM (inactive)	1.77 µM (inactive)	1.89 µM (inactive)	7.05 µM (inactive)	1.38 µM (inactive)	5.35 µM (inactive)	1.5 µM (inactive)	4.35 µM (inactive)	7.23 µM (inactive)	0.388 µM (active)	3.78 µM (inactive)						
Cc1ccc(S(=O)(=O)N/N=C/c2oc(-c3cccc([N+](=O)[O-])c3)c(-c3cccc([N+](=O)[O-])c3)c2[N+](=O)[O-])cc1	60.7 µM (inactive)	> 100 µM (inactive)	> 100 µM (inactive)	32.4 µM (inactive)	25.4 µM (inactive)	> 100 µM (inactive)	29.9 µM (inactive)	> 100 µM (inactive)		25.8 µM (inactive)	> 100 µM (inactive)	> 100 µM (inactive)	49.8 µM (inactive)	64.7 µM (inactive)	> 100 µM (inactive)	> 100 µM (inactive)	31.9 µM (inactive)	15.1 µM (inactive)		
CCCCCC/C=C/CCCCCCCc1cccc(O)c1C(=O)O	> 100 µM (inactive)		> 100 µM (inactive)	> 100 µM (inactive)	> 100 µM (inactive)	14.4 µM (inactive)	44.9 µM (inactive)	> 100 µM (inactive)	> 100 µM (inactive)	48.5 µM (inactive)	> 100 µM (inactive)	> 100 µM (inactive)	> 100 µM (inactive)	49.4 µM (inactive)	> 100 µM (inactive)			52.8 µM (inactive)		
COc1ccc(C2=NN(C(C)=O)c3nc4ccccc4nc3O2)cc1	15.2 µM (inactive)			53.3 µM (inactive)	> 100 µM (inactive)	> 100 µM (inactive)	3.33 µM (inactive)		89.7 µM (inactive)	> 100 µM (inactive)	70.6 µM (inactive)	11 µM (inactive)	26.1 µM (inactive)	50.8 µM (inactive)	> 100 µM (inactive)		16.4 µM (inactive)	20.8 µM (inactive)		
COc1cc(=O)n2c3ccccc3n(C)c2c1C#N	> 100 µM (inactive)	> 100 µM (inactive)	> 100 µM (inactive)	43.8 µM (inactive)	> 100 µM (inactive)	74.3 µM (inactive)	> 100 µM (inactive)			45.3 µM (inactive)	> 100 µM (inactive)	> 100 µM (inactive)	22.6 µM (inactive)	> 100 µM (inactive)	> 100 µM (inactive)	> 100 µM (inactive)	> 100 µM (inactive)	> 100 µM (inactive)	> 100 µM (inactive)	> 100 µM (inactive)
CC1(C)CC(=O)C(CCC(=O)/C=C/c2ccccc2)C(=O)C1	> 100 µM (inactive)	> 100 µM (inactive)	> 100 µM (inactive)	> 100 µM (inactive)	2.51 µM (inactive)	> 100 µM (inactive)	> 100 µM (inactive)			34 µM (inactive)	> 100 µM (inactive)	> 100 µM (inactive)	> 100 µM (inactive)	> 100 µM (inactive)	> 100 µM (inactive)	> 100 µM (inactive)	> 89.3 µM (inactive)	> 100 µM (inactive)	> 100 µM (inactive)	> 100 µM (inactive)
CCOC(=O)c1ccc(N2C(=O)/C(=C\OC)c3ccccc3C2=O)cc1	27.2 µM (inactive)		33.4 µM (inactive)	34.6 µM (inactive)		44.3 µM (inactive)	25.2 µM (inactive)	37 µM (inactive)	75.2 µM (inactive)	25.5 µM (inactive)	18.7 µM (inactive)	43.6 µM (inactive)	33.4 µM (inactive)	38.5 µM (inactive)	94.4 µM (inactive)			29 µM (inactive)		
On1c(-c2ccccc2)c(-c2c(-c3ccccc3)n(O)c3ccccc23)c2ccccc21	14.9 µM (inactive)			48.5 µM (inactive)	32.7 µM (inactive)	45.7 µM (inactive)			11.2 µM (inactive)	37.7 µM (inactive)	32.3 µM (inactive)	52.1 µM (inactive)	22.1 µM (inactive)	26.5 µM (inactive)				22.8 µM (inactive)		
O=C(O)[C@@]1(Cc2ccc(O)cc2)C[C@@H]2Cc3ccccc3N2N1	> 100 µM (inactive)	> 100 µM (inactive)	> 100 µM (inactive)	> 100 µM (inactive)	> 100 µM (inactive)	> 100 µM (inactive)	> 100 µM (inactive)			> 100 µM (inactive)	> 100 µM (inactive)	> 100 µM (inactive)	> 100 µM (inactive)	> 100 µM (inactive)	> 100 µM (inactive)	> 100 µM (inactive)	> 100 µM (inactive)	> 100 µM (inactive)	> 100 µM (inactive)	> 100 µM (inactive)
Cc1cccc2c(=O)c3cccc([C@H](C)C(=O)O)c3oc12	> 100 µM (inactive)	> 100 µM (inactive)	> 100 µM (inactive)	> 100 µM (inactive)	> 100 µM (inactive)	> 100 µM (inactive)	> 100 µM (inactive)			> 100 µM (inactive)	> 100 µM (inactive)	> 100 µM (inactive)	> 100 µM (inactive)	> 100 µM (inactive)	> 100 µM (inactive)	> 100 µM (inactive)	> 100 µM (inactive)	> 100 µM (inactive)	> 100 µM (inactive)	> 100 µM (inactive)
CCC(C#N)N(Cc1cccc(CN(C(C)=O)C(C#N)CC)c1)C(C)=O (stereo not given)	> 100 µM (inactive)	> 100 µM (inactive)	> 100 µM (inactive)	> 100 µM (inactive)	> 100 µM (inactive)	7.57 µM (inactive)	> 100 µM (inactive)			5.52 µM (inactive)	> 100 µM (inactive)	31.4 µM (inactive)	> 100 µM (inactive)	> 100 µM (inactive)	> 100 µM (inactive)	> 100 µM (inactive)	6.56 µM (inactive)	> 100 µM (inactive)	> 100 µM (inactive)	84.1 µM (inactive)
C[C@]12CC[C@H]3[C@@H](CC[C@]4(O)C[C@@H](O)CC[C@]34CO)[C@@]1(O)CC[C@@H]2C1=CC(=O)OC1 [STROPHANTHIDOL]	1.42 µM (inactive)	1.61 µM (inactive)	0.494 µM (active)	0.553 µM (active)	1.64 µM (inactive)	1.94 µM (inactive)	2.79 µM (inactive)			0.225 µM (active)	2.21 µM (inactive)	1.12 µM (inactive)	1.21 µM (inactive)	2.99 µM (inactive)	3.73 µM (inactive)	1.36 µM (inactive)	2.78 µM (inactive)	0.447 µM (active)	2.57 µM (inactive)	1.51 µM (inactive)
CCOC(=O)NC(=O)c1cn(CCN2CCN(C(=O)CCCCCCCCCCC(=O)N3CCN(CCn4cc(C(=O)NC(=O)OCC)c(=O)[nH]c4=O)CC3)CC2)c(=O)[nH]c1=O	> 100 µM (inactive)	> 100 µM (inactive)	> 100 µM (inactive)	> 100 µM (inactive)		> 100 µM (inactive)	> 100 µM (inactive)		> 100 µM (inactive)	> 100 µM (inactive)	> 100 µM (inactive)	> 100 µM (inactive)	36.8 µM (inactive)	> 100 µM (inactive)	> 100 µM (inactive)		> 100 µM (inactive)	86.5 µM (inactive)		
O=C1Oc2cc3c(c4cccc1c24)OCN(c1ccc(Cl)cc1)C3	14.3 µM (inactive)	> 100 µM (inactive)	38.8 µM (inactive)	11.3 µM (inactive)	4.82 µM (inactive)	11.4 µM (inactive)	> 100 µM (inactive)		14.4 µM (inactive)	7 µM (inactive)	26.4 µM (inactive)	28.1 µM (inactive)	48 µM (inactive)	34.9 µM (inactive)	7.82 µM (inactive)		20.5 µM (inactive)	15.2 µM (inactive)		
Nc1nc(Cl)cc(NCC2(CO)CCCC2)n1	> 100 µM (inactive)	> 100 µM (inactive)	> 100 µM (inactive)	> 100 µM (inactive)	> 100 µM (inactive)	> 100 µM (inactive)	> 100 µM (inactive)			> 100 µM (inactive)	> 100 µM (inactive)	19 µM (inactive)	> 100 µM (inactive)	65.8 µM (inactive)	> 100 µM (inactive)	> 100 µM (inactive)	52.5 µM (inactive)	49.1 µM (inactive)	> 100 µM (inactive)	55.8 µM (inactive)
CC(C)(C)[Si](C)(C)OCC1C=CC(n2cnc3c(N)ncnc32)O1 (stereo not given)	61.2 µM (inactive)	> 79.3 µM (inactive)	> 100 µM (inactive)	20.1 µM (inactive)	9.02 µM (inactive)	53.5 µM (inactive)	46.6 µM (inactive)			10.1 µM (inactive)	61.1 µM (inactive)	32.9 µM (inactive)	55.2 µM (inactive)	36 µM (inactive)	> 73.1 µM (inactive)	64.3 µM (inactive)	9.04 µM (inactive)	33.2 µM (inactive)	22.3 µM (inactive)	34.2 µM (inactive)

From ChEMBL document CHEMBL1201862, “PubChem BioAssay data set” (2004)
